Among the data in US20200405697A1, “Antitumor Agent” (Taiho Pharmaceutical Co., Ltd, priority 2017, published 2020) are CI value, Fa value and IC50 values, retold here.

Test [1] deals with A549 (Human lung cancer cell line). Put plainly: Effect of combination of sulfonamide compound and other antitumor agent (CellTiter-Glo, combination index): A549. (In general: ATP-based viability assays read luminescence as a measure of living cells.)
For test [2], the system named is MV-4-11 (Human blood cancer cell line). The test is described as follows: Effect of combination of sulfonamide compound and other antitumor agent (CellTiter-Glo, combination index): MV-4-11.
Method: Each cell line was seeded at 90 L/well to a 96-well culture plate (Thermo Fisher Scientific, Inc.) according to the above tables. The cell-seeded plate was cultured in an incubator set to 37° C. and 500 CO2. On the day following seeding, varying concentrations of the sulfonamide compound and the other antitumor agent were added in combination to the cells. […] The serial dilutions of each compound, or DW was added at 5μL/well to the plate such that each compound and DW, or the sulfonamide compound and the other antitumor agent were combined. […] The plate after the addition was cultured at 37° C. for 3 days under 5% CO2 conditions.
Three days later, CellTiter-Glo(R) 2.0 Reagent (Promega Corporation) was added at 100 μL/well, and the amount of luminescence was measured using a plate reader EnSpire(R) Multimode Plate Reader (PerkinElmer Co., Ltd.).
An average value from 3 wells was calculated as to each drug condition from the obtained data, and cell survival rate normalized against control wells supplemented with the vehicle (DW) was calculated. A Fa (fractional inhibition) value was calculated by subtracting the cell survival rate from 1.
The target in test [3] is T1, human RNR (histidine tagged human M1 and human M2 proteins) (Homo sapiens, UniProt P23921).
T1 construct: made in house; host or cells: Escherichia coli
T1 sequence (P23921 1-792): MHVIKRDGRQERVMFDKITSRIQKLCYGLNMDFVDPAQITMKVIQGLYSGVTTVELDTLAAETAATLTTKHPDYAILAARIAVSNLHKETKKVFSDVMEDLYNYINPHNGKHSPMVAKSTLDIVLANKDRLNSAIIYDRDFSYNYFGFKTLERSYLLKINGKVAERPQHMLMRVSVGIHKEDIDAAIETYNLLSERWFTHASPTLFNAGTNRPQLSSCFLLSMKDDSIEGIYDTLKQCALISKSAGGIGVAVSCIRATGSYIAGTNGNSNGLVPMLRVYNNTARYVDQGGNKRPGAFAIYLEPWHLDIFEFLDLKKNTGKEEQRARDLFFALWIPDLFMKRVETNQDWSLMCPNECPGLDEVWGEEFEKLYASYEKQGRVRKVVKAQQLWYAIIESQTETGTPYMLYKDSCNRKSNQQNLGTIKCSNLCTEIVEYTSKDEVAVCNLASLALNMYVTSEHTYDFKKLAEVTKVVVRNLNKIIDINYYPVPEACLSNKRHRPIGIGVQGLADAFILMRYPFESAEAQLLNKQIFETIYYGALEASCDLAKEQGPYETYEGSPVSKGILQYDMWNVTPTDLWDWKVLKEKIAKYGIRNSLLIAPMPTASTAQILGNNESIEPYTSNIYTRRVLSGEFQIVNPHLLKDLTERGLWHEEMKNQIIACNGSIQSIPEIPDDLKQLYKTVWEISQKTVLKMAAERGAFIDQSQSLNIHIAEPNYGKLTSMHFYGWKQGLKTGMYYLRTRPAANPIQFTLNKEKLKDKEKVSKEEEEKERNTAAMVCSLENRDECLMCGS
Put plainly: Human RNR inhibition effect (dCDP formation from CDP). It is filed as biochemical. The conditions noted are these: 10 μM CDP, 37° C. for 30 minutes, read-out: RNR inhibitory activity IC50. The method in brief: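 His-tagged human M1 (isoform 1) and N-terminal 59-aa-truncated M2 (isoform 2), E. coli-expressed, Ni-purified, preincubated 20 min with compound (1% DMSO). Reaction with 10 μM CDP, 2 mM ATP, 0.24 mM NADPH, 6 mM DTT, 4 mM Mg acetate, 100 mM KCl, 50 mM HEPES pH 7.2, 30 min at 37° C. dCDP formed quantified by reverse-phase HPLC after heat stop.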

The mark [4] stands for this setting: Example Compound 14 1310 nM + Guadecitabine 326 nM.
[5] abbreviates: Example Compound 14 1970 nM + Guadecitabine 490 nM.
Setting [6] is: Example Compound 14 2950 nM + Guadecitabine 734 nM.
Where [7] appears, read: Example Compound 14 4420 nM + Guadecitabine 1100 nM.
[8] abbreviates: Example Compound 209A 635 nM + Guadecitabine 734 nM.
The mark [9] stands for this setting: Example Compound 235A 520 nM + Guadecitabine 469 nM.
The mark [10] stands for this setting: Example Compound 235A 780 nM + Guadecitabine 704 nM.
Where [11] appears, read: Example Compound 235A 1170 nM + Guadecitabine 1060 nM.
Where [12] appears, read: Example Compound 5 164 nM + Guadecitabine 11.8 nM.
Where [13] appears, read: Example Compound 5 247 nM + Guadecitabine 17.8 nM.
The mark [14] stands for this setting: Example Compound 5 370 nM + Guadecitabine 26.7 nM.
Where [15] appears, read: Example Compound 5 555 nM + Guadecitabine 40.1 nM.
The mark [16] stands for this setting: Example Compound 5 833 nM + Guadecitabine 60.2 nM.
Where [17] appears, read: Example Compound 5 1250 nM + Guadecitabine 90.3 nM.
Setting [18] is: Example Compound 14 519 nM + Guadecitabine 17.8 nM.
The mark [19] stands for this setting: Example Compound 14 778 nM + Guadecitabine 26.7 nM.
[20] abbreviates: Example Compound 14 1170 nM + Guadecitabine 40.2 nM.
The mark [21] stands for this setting: Example Compound 14 1750 nM + Guadecitabine 60.1 nM.
Setting [22] is: Example Compound 14 2630 nM + Guadecitabine 90.3 nM.
[23] abbreviates: Example Compound 209A 96.6 nM + Guadecitabine 17.8 nM.
[24] abbreviates: Example Compound 209A 217 nM + Guadecitabine 40.0 nM.
[25] abbreviates: Example Compound 209A 326 nM + Guadecitabine 60.1 nM.
The mark [26] stands for this setting: Example Compound 235A 90.1 nM + Guadecitabine 11.9 nM.
Where [27] appears, read: Example Compound 235A 135 nM + Guadecitabine 17.8 nM.
The mark [28] stands for this setting: Example Compound 235A 304 nM + Guadecitabine 40.1 nM.
[29] abbreviates: Example Compound 235A 456 nM + Guadecitabine 60.1 nM.
The mark [30] stands for this setting: Example Compound 235A 684 nM + Guadecitabine […].

For orientation: IC50 means the concentration that inhibits the measured activity by half.

Each structure is given as a SMILES string.

With `Nc1ncn([C@H]2C[C@H](OP(=O)(O)OC[C@H]3O[C@@H](n4cnc5c(=O)[nH]c(N)nc54)C[C@@H]3O)[C@@H](CO)O2)c(=O)n1` [Guadecitabine, guadecitabine], the CI value in test [1] (setting [4]) is 0.561; in test [1] (setting [5]) it was 0.503; in test [1] (setting [6]) it was 0.582; in test [1] (setting [7]), 0.620; in test [1] (setting [8]), 0.522; in test [1] (setting [9]) it was 0.568. In addition, the CI value in test [1] (setting [10]) is reported as 0.583; in test [1] (setting [11]) it was 0.670; in test [2] (setting [12]) it was 0.640; in test [2] (setting [13]) it was 0.683; in test [2] (setting [14]), 0.727; in test [2] (setting [15]), 0.690. Moreover, the CI value is 0.673 in test [2] (setting [16]); 0.557 in test [2] (setting [17]); 0.767 in test [2] (setting [18]); 0.844 in test [2] (setting [19]); 0.797 in test [2] (setting [20]); 0.668 in test [2] (setting [21]). The CI value turned out to be 0.545 in test [2] (setting [22]); 0.766 in test [2] (setting [23]); 0.753 in test [2] (setting [24]); 0.631 in test [2] (setting [25]); 0.633 in test [2] (setting [26]); 0.638 in test [2] (setting [27]). The results for the CI value in test [2] (setting [28]), in test [2] (setting [29]) and in test [2] (setting [30]) were 0.689, 0.617 and 0.544, respectively. The Fa value in test [1] (setting [4]) came to 0.2913; in test [1] (setting [5]), 0.4560; in test [1] (setting [6]), 0.5553; in test [1] (setting [7]), 0.6875; in test [1] (setting [8]), 0.6179; in test [1] (setting [9]), 0.2878. Besides, the Fa value is 0.4237 in test [1] (setting [10]); 0.5377 in test [1] (setting [11]); 0.2498 in test [2] (setting [12]); 0.3527 in test [2] (setting [13]); 0.4905 in test [2] (setting [14]); 0.7205 in test [2] (setting [15]). The Fa value came to 0.9023 in test [2] (setting [16]); 0.9892 in test [2] (setting [17]); 0.3318 in test [2] (setting [18]); 0.4449 in test [2] (setting [19]); 0.6448 in test [2] (setting [20]); 0.8620 in test [2] (setting [21]). Further, the Fa value was determined as 0.9686 in test [2] (setting [22]); 0.4376 in test [2] (setting [23]); 0.8301 in test [2] (setting [24]); 0.9675 in test [2] (setting [25]); 0.2567 in test [2] (setting [26]); 0.4131 in test [2] (setting [27]). The figures for the Fa value in test [2] (setting [28]), in test [2] (setting [29]) and in test [2] (setting [30]) were 0.7974, 0.9524 and 0.9930, respectively.
Turning to `Cc1cccc(F)c1[C@H](C)[C@H](NS(=O)(=O)c1ccc(Cl)cc1C(N)=O)c1n[nH]c(=O)o1` [Example 23, 5-chloro-2-(N-((1S,2S)-2-(2-fluoro-6-methylphenyl)-1-(5-oxo-4,5-dihydro-1,3,4-oxadiazol-2-yl)propyl)sulfamoyl)benzainide], the IC50 in test [3] was found to be 740 nM.
Regarding `Cc1ccc(F)c([C@@H](C)[C@H](NS(=O)(=O)c2ccc(Cl)cc2C(N)=S)c2n[nH]c(=O)o2)c1C` [Example 287, 5-chloro-2-(N-((1S,2R)-2-(6-fluoro-2,3-dimethylphenyl)-1-(5-oxo-4,5-dihydro-1,3,4-oxadiazol-2-yl)propyl)sulfamoyl)benzothioamide], the IC50 in test [3] worked out at 50 nM.
Still for that read-out and setting: for `CC(O)c1c(Cl)ccc(S(=O)(=O)N[C@H](c2n[nH]c(=O)o2)[C@H](C)c2cccc3c2CCC3)c1Cl` (stereo partly drawn) [Example 201, 2,4-dichloro-N-((1S,2R)-2-(2,3-dihydro-1H-inden-4-yl)-1-(5-oxo-4,5-dihydro-1,3,4-oxadiazol-2-yl)propyl)-3-(1-hydroxyethyl)benzenesulfonamide] the value was 170 nM.
